Experimental data: patent US20250382293A1, “COMPOUNDS AND METHODS FOR YAP/TEAD MODULATION AND INDICATIONS THEREFOR” (OPNA BIO SA, priority 2023, published 2025)

Test system: TEAD-dependent transcription
Assay: Inhibitor activity against TEAD-dependent transcription in a cell-based reporter assay (MSTO-211H+12XGTIIC luciferase)
Conditions: Homo sapiens; MSTO-211H+12XGTIIC cells, 24 hours compound incubation, luminescence normalized to cell viability signal; read-out: MSTO-211H GMean IC50 (uM) Cell Assay Reporter Cell Variant: TEAD
From the text: Determine Inhibitor Activity Against TEAD-Dependent Transcription in a Cell-Based Reporter Assay
The human mesothelioma cell line MSTO-211H was stably transfected with a pGL4.21 plasmid containing a synthetic promoter with 12 copies of the GTIIC TEAD response element that drives the expression of a luciferase reporter gene 1 using Lipofectamine transfection reagent (Thermo Fisher). Transfected cells were selected using puromycin and single cell clones expressing this construct (referred to as MSTO-211H+12XGTIIC) were generated by limiting dilution. MSTO-211H cells was characterized by genetic alterations in key components of the Hippo pathway^2, resulting in up-regulation of YAP/TEAD-mediated transcription. […] To evaluate TEAD inhibitors, the MSTO-211H+12XGTIIC cell line was seeded in a 96-well plate in 50 μL of culture media at 1×10^4 cells per well and incubated at 37° C. overnight. Serial dilutions of compounds (in total volume of 50 μL of culture media) were added to the cells and incubated at 37° C. for 24 hours. Each plate included cells treated with DMSO as high controls and cells treated with 20 μM of the reference compound K-975 (a known TEAD inhibitor) 3 as low controls. Cell viability was assayed by the addition of 25 μL of CellTiter-Fluor reagent (Promega) followed by a 30-minute incubation at 37° C. and quantification of the fluorescence signal (Ex400/Em505). Subsequently, luciferase expression was assayed by the addition of 25 μL of ONE-Glo reagent (Promega) followed by a 10-minute incubation at room temperature and quantification of the luminescence signal. The luminescence signal was normalized to the fluorescence signal to correct for any loss in cell viability over the 24-hour compound incubation period. The percentage of inhibition of normalized luminescence signal, indicative of compound-mediated inhibition of TEAD-dependent transcription, at individual compound concentrations relative to high and low controls was calculated. The data were analyzed by using nonlinear regression to generate IC50 values for individual compounds.

`C=CC(=O)N1CCC(N2CCc3c(cccc3Oc3ccc(C(F)(F)F)cc3)C2)C1` (stereo not shown) [O-0114, 1-(3-(5-(4-(trifluoromethyl)phenoxy)-3,4-dihydroisoquinolin-2(1H)-yl)pyrrolidin-1-yl)prop-2-en-1-one] and `C=CC(=O)N1CC(N2CCc3c(cccc3Oc3ccc(C(F)(F)F)cc3)C2)C1` [O-0119, 1-(3-(5-(4-(trifluoromethyl)phenoxy)-3,4-dihydroisoquinolin-2(1H)-yl)azetidin-1-yl)prop-2-en-1-one] fall in the same range of IC50: 0.001 to 10 µM for the first, 0.001 to 10 µM for the second.

`O=S(=O)(N1CCC(N2CCc3c(cccc3Oc3ccc(C(F)(F)F)cc3)C2)CC1)C(F)(F)F` [O-0121, 5-(4-(trifluoromethyl)phenoxy)-2-(1-((trifluoromethyl)sulfonyl)piperidin-4-yl)-1,2,3,4-tetrahydroisoquinoline] and `O=S(=O)(N1CCC(N2CCc3c(cccc3Oc3ccc(C(F)(F)F)cc3)C2)C1)C(F)(F)F` (stereo not shown) [O-0112, 5-(4-(trifluoromethyl)phenoxy)-2-(1-((trifluoromethyl)sulfonyl)pyrrolidin-3-yl)-1,2,3,4-tetrahydroisoquinoline.] fall in the same range of IC50: 0.001 to 10 µM for the first, 0.001 to 10 µM for the second.

`CS(=O)(=O)Nc1nc(C(=O)N2CCc3c(cccc3Oc3ccc(C(F)(F)F)cc3)C2)cs1` [O-0110, N-(4-(5-(4-(trifluoromethyl)phenoxy)-1,2,3,4-tetrahydroisoquinoline-2-carbonyl)thiazol-2-yl)methanesulfonamide] and `CNS(=O)(=O)c1nc(C(=O)N2CCc3c(cccc3Oc3ccc(C(F)(F)F)cc3)C2)cs1` [O-0107, N-methyl-4-(5-(4-(trifluoromethyl)phenoxy)-1,2,3,4-tetrahydroisoquinoline-2-carbonyl)thiazole-2-sulfonamide] fall in the same range of IC50: 0.001 to 10 µM for the first, 0.001 to 10 µM for the second.

`O=C(CCS(=O)(=O)C(F)(F)F)N1CCc2c(cccc2Oc2ccc(C(F)(F)F)nc2)C1` [O-0002, 1-(5-((6-(trifluoromethyl)pyridin-3-yl)oxy)-3,4-dihydroisoquinolin-2(1H)-yl)-3-((trifluoromethyl)sulfonyl)propan-1-one] and `O=C(CCS(=O)(=O)C(F)(F)F)N1CCc2c(ncnc2Oc2ccc(C(F)(F)F)cc2)C1` [O-0003, 1-(4-(4-(trifluoromethyl)phenoxy)-5,8-dihydropyrido[3,4-d]pyrimidin-7(6H)-yl)-3-((trifluoromethyl)sulfonyl)propan-1-one] fall in the same range of IC50: 0.001 to 10 µM for the first, 0.001 to 10 µM for the second.

First: CS(=O)(=O)N1CCC(N2CCc3c(cccc3Oc3ccc(C(F)(F)F)cc3)C2)CC1 [O-0120, 2-(1-(methylsulfonyl)piperidin-4-yl)-5-(4-(trifluoromethyl)phenoxy)-1,2,3,4-tetrahydroisoquinoline]
Second: C=CS(=O)(=O)N1CCC(N2CCc3c(cccc3Oc3ccc(C(F)(F)F)cc3)C2)CC1 [O-0122, 5-(4-(trifluoromethyl)phenoxy)-2-(1-(vinylsulfonyl)piperidin-4-yl)-1,2,3,4-tetrahydroisoquinoline]
The IC50 of the first is lower: 0.001 to 10 µM for the first, 10 to 100 µM for the second.

`CS(=O)(=O)N1CCCC(N2CCc3c(cccc3Oc3ccc(C(F)(F)F)cc3)C2)C1` (stereo not shown) [O-0111, 2-(1-(methylsulfonyl)piperidin-3-yl)-5-(4-(trifluoromethyl)phenoxy)-1,2,3,4-tetrahydroisoquinoline] and `CS(=O)(=O)N1CC(N2CCc3c(cccc3Oc3ccc(C(F)(F)F)cc3)C2)C1` [O-0115, 2-(1-(methylsulfonyl)azetidin-3-yl)-5-(4-(trifluoromethyl)phenoxy)-1,2,3,4-tetrahydroiso-quinoline] fall in the same range of IC50: 0.001 to 10 µM for the first, 0.001 to 10 µM for the second.

`C=CC(=O)N1CCc2cc(Oc3ccc(C(F)(F)F)cc3)ccc2C1` [O-0058, 1-(6-(4-(trifluoromethyl)phenoxy)-3,4-dihydroisoquinolin-2(1H)-yl)prop-2-en-1-one] and `O=C(CCl)N1CCc2cc(Oc3ccc(C(F)(F)F)cc3)ccc2C1` [O-0070, 2-chloro-1-(6-(4-(trifluoromethyl)phenoxy)-3,4-dihydroisoquinolin-2(1H)-yl)ethan-1-one] fall in the same range of IC50: 0.001 to 10 µM for the first, 0.001 to 10 µM for the second.

First: C=CS(=O)(=O)N1CCc2cc(Oc3ccc(C(F)(F)F)cc3)ccc2C1 [O-0064, 6-(4-(trifluoromethyl)phenoxy)-2-(vinylsulfonyl)-1,2,3,4-tetrahydroisoquinoline]
Second: O=S(=O)(c1ccccc1)N1CCc2cc(Oc3ccc(C(F)(F)F)cc3)ccc2C1 [O-0104, 2-(phenylsulfonyl)-6-(4-(trifluoromethyl)phenoxy)-1,2,3,4-tetrahydroisoquinoline]
The IC50 of the first is lower: 0.001 to 10 µM for the first, 10 to 100 µM for the second. The first is the more potent here.

`CCNS(=O)(=O)c1nc(C(=O)N2CCc3c(cccc3Oc3ccc(C(F)(F)F)cc3)C2)cs1` [O-0108, N-ethyl-4-(5-(4-(trifluoromethyl)phenoxy)-1,2,3,4-tetrahydroisoquinoline-2-carbonyl)thiazole-2-sulfonamide] and `CCCNS(=O)(=O)c1nc(C(=O)N2CCc3c(cccc3Oc3ccc(C(F)(F)F)cc3)C2)cs1` [O-0105, N-propyl-4-(5-(4-(trifluoromethyl)phenoxy)-1,2,3,4-tetrahydroisoquinoline-2-carbonyl)thiazole-2-sulfonamide] fall in the same range of IC50: 0.001 to 10 µM for the first, 0.001 to 10 µM for the second.

`C=CC(=O)N1CCC(N2CCc3c(cccc3Oc3ccc(C(F)(F)F)cc3)C2)CC1` [O-0123, 1-(4-(5-(4-(trifluoromethyl)phenoxy)-3,4-dihydroisoquinolin-2(1H)-yl)piperidin-1-yl)prop-2-en-1-one] and `C=CS(=O)(=O)N1CCC(N2CCc3c(cccc3Oc3ccc(C(F)(F)F)cc3)C2)C1` (stereo not shown) [O-0113, 5-(4-(trifluoromethyl)phenoxy)-2-(1-(vinylsulfonyl)pyrrolidin-3-yl)-1,2,3,4-tetrahydroisoquinoline] fall in the same range of IC50: 0.001 to 10 µM for the first, 0.001 to 10 µM for the second.

First: O=S(=O)(N1CC(N2CCc3c(cccc3Oc3ccc(C(F)(F)F)cc3)C2)C1)C(F)(F)F [O-0116, 5-(4-(trifluoromethyl)phenoxy)-2-(1-((trifluoromethyl)sulfonyl)azetidin-3-yl)-1,2,3,4-tetrahydroisoquinoline]
Second: C=CS(=O)(=O)N1CC(N2CCc3c(cccc3Oc3ccc(C(F)(F)F)cc3)C2)C1 [O-0118, 5-(4-(trifluoromethyl)phenoxy)-2-(1-(vinylsulfonyl)azetidin-3-yl)-1,2,3,4-tetrahydroisoquinoline.]
The IC50 of the first is lower: 0.001 to 10 µM for the first, 10 to 100 µM for the second.

`CS(=O)(=O)Nc1nc(C(=O)N2CCc3c(cccc3Oc3ccc(C(F)(F)F)c(F)c3)C2)co1` [O-0106, N-(4-(5-(3-fluoro-4-(trifluoromethyl)phenoxy)-1,2,3,4-tetrahydroisoquinoline-2-carbonyl)oxazol-2-yl)methanesulfonamide] and `CS(=O)(=O)Nc1nc(C(=O)N2CCc3c(cccc3Oc3ccc(C(F)(F)F)c(F)c3)C2)cs1` [O-0109, N-(4-(5-(3-fluoro-4-(trifluoromethyl)phenoxy)-1,2,3,4-tetrahydroisoquinoline-2-carbonyl)thiazol-2-yl)methanesulfonamide] fall in the same range of IC50: 10 to 100 µM for the first, 10 to 100 µM for the second.

Compound `O=C(c1c[nH]c(C(F)(F)F)n1)N1CCc2cc(Oc3ccc(C(F)(F)F)cc3)ccc2C1` [O-0074, (2-(trifluoromethyl)-1H-imidazol-4-yl)(6-(4-(trifluoromethyl)phenoxy)-3,4-dihydroisoquinolin-2(1H)-yl)methanone] has an IC50 of 0.001 to 10 µM.
